Read-outs that look alike come from different tables or passages of the source.
Experiments:
[1] = tested on: Reh cells expressing PRPS1 mutant genes; experiment: Identification of cells apoptosis (Annexin V / 7-AAD flow cytometry); assay type: cell-based, human; conditions: 10 μg/ml 6-MP or 6-TG, 72 hours; cells expressing PRPS1 mutant genes compared with control group expressing empty load
Procedure: (i) Cell inoculation: Reh cells expressing the PRPS1 wild-type and various PRPS1 mutants were counted and seeded into 12-well plates with inoculated 3×10^5 cells per well. Duplicated wells were set up.
(ii) Cell treatment: the drug 6-MP or 6-TG with concentration of 10 μg/ml was added to a 12-well plate with grown cells and incubated at 37° C. for 72 hours.
(iii) Cell staining: After 72 hours, the cells were collected by centrifugation, washed with PBS buffer, added in […] and 7-AAD dye labeled with PE from BD, and incubated for 15 minutes at room temperature. The cells were centrifuged to discard the supernatant and washed twice with PBS. (iv) Identification by Flow Cytometer: proportion of cell apoptosis was determined using Flow Cytometer from Canto II BD.

[2] = tested on: Reh cells expressing PRPS1 mutants; experiment: Identification of intracellular metabolites of 6-MP by LC-MS; assay type: cell-based, human; conditions: 10 μM 6-MP, 4 hours; mutants in experimental groups compared with control group
Procedure: 6-MP is a prodrug and needs to be undergone metabolic reactions in vivo to form TIMP and TGMP before it works, as shown in FIG. 9C. The identification procedure is as follows:
(i) Cell inoculation: Reh cells expressing the PRPS1 wild-type and various PRPS1 mutants were counted and seeded into 6 cm culture dish with inoculated 3×10^6 cells in each plate.
(ii) Cell treatment: 10 μM chemotherapy drug 6-MP was added into each 6 cm culture dish and treated for 4 hours;
(iii) Cell collection: The cells were transferred to a centrifuge tube, centrifuged at 3,000 g for 5 minutes to remove the supernatant, and lysed at 3×10^6 cells per 200 μl 80% methanol;
(iv) The amounts of metabolites from chemotherapeutic drugs 6-MP, TIMP, TGMP, r-MP, r-TG and r-MMP were measured by LC-MS (ABI 5500 Qtrap coupled with Waters Acquity UPLC), and standard curve for quantification was made using TIMP (Jean Bioscience, […], r-TG (Sigma, cat #858412), r-MMP (Sigma, cat #M4002) respectively.

[3] = tested on: Reh cells expressing different PRPS1 mutant genes; experiment: Drug susceptibility test of 6-MP / 6-TG (cell survival, CellTiter-Glo); assay type: cell-based, human; conditions: Reh cells expressing PRPS1 mutant genes compared with control group expressing empty load; 72 hours
Procedure: Reh cells are a strain of human acute B lymphoblastic leukemia. The susceptibility of the PRPS1 mutant to the chemotherapeutic drug 6-MP was determined by the survival rate of Reh cells expressing different PRPS1 mutant genes which were treated by chemotherapeutic drug 6-MP, wherein the process comprises steps of
(i) Cell inoculation: Reh cells expressing the PRPS1 wild-type and all kinds of PRPS1 mutants were counted and seeded into 96-well plates with inoculated 10^4 cells per well. Five parallel wells were designed.
Drugs were added into 96-well plates with grown cells and incubated at 37° C. for 72 hours.
The susceptibility of the PRPS1 mutant to the chemotherapeutic drug 6-TG was determined by the survival rate of Reh cells expressing different PRPS1 mutant genes which were treated by chemotherapeutic drug 6-TG, in which the process comprises steps of
(i) Cell inoculation: Reh cells expressing the PRPS1 wild-type and all kinds of PRPS1 mutants were counted and seeded into 96-well plates with inoculated 10^4 cells per well. Five parallel wells were set up.
Drug were added into 96-well plates with grown cells and incubated at 37° C. for 72 hours.

[4] = tested on: PRPS1 mutants S103T, 5103N, N144S, T303S, K176N, D183E, A190T, A190V, L191F; experiment: Inhibition of GDP/ADP on PRPS1 protein activity in vitro (Kinase-Glo); assay type: biochemical, human; conditions: relapse-specific PRPS1 mutants compared with PRPS1 wild-type
Procedure: (§1) ATP (Item No. A7699), ADP (Item No. A2754), GDP (Item No. G7172) and ribose-5-phosphate (Item No. R7750) were purchased from Sigma. The reaction system comprised 50 mM Tris pH 7.5, 2 mM phosphate, 1 mM DTT, 10 mM MgCl2, 0.5 mM ribose-5-phosphate, 0.5 mM ATP and PRPS1 protein.
(§2) (ii) Inhibition of GDP/ADP on PRPS1 protein activity: 3 times gradient dilution of the GDP/ADP with an initial concentration of 5 mM And 15 μL of PRPS1 in vitro enzyme reaction system was prepared, added into 384-well plate, and reacted at 37° C. for 30 minutes. Then 10 μL of Kinase-Glo reagent (Item No. V3722) from Promega was added reacted at 37° C. for 15 minutes to terminate the reaction. The chemiluminescence values can be read in a microplate reader, and the inhibition of GDP/ADP on PRPS1 protein activity was calculated by Graphpad 5.0.

[5] = tested on: PRPS1 loss-of-function mutants A87T and M115T; experiment: as above; assay type: biochemical, human; conditions: known loss-of-function mutants A87T and M115T compared with wild-type
Procedure: as §1, §2

[6] = tested on: Reh cells expressing PRPS1 mutant genes; experiment: Cell-level feedback regulation of PRPS1 activity by GDP/ADP (13C5-PRPP by LC-MS); assay type: cell-based, human; conditions: each PRPS1 mutant gene in experimental group; 2 mM ADP or 0.5 mM GDP, 4 hours
Procedure: (§3) In the present invention, the intracellular activity of PRPS1 was detected by means of isotope labeling in combination with the technologies of cell biology and metabolomics, and based on this, the effect of nucleotide GDP/ADP on PRPS1 activity was evaluated. The preferred embodiment is as follows:
(§4) (i) Cell culture: Reh cells expressing the PRPS1 wild-type and various PRPS1 mutants were counted and seeded into 6 cm culture dish, and 3×10^6 cells were inoculated in each well.
(§5) (ii) Cell treatment: 2 mM ADP or 0.5 mM GDP was added to the culture dish and cells were treated for 4 hours, after that, the cells were resuspended using glucose-free medium (Gibco, cat #11879-020), and 10 mM glucose labeled with ^13C6 was added into each 6 cm culture dish (Cambridge isotope laboratories, cat #CLM-1396-1) and labeled for 5 minutes. (iii) Cell collection: The cells were transferred to a centrifuge tube, centrifuged at 3,000 g for 5 minutes, the supernatant was removed, and the cells were lysed using 3×10^6 cells/200 μl 80% methanol. (iv) The level of ^13C5-PRPP was detected by LC-MS (ABI 5500 Qtrap coupled with Waters Acquity UPLC), and standard curve quantification was made using PRPP (sigma, cat #P8296). The activity of PRPS1 was determined according to the level of PRPP.

[7] = tested on: Reh cells expressing the PRPS1 wild-type; experiment: as above; assay type: cell-based, human; conditions: wild-type experimental group; 2 mM ADP or 0.5 mM GDP, 4 hours
Procedure: as §3, §4, §5

HGPRT = HGPRT (Homo sapiens, UniProt P00492); conditions: for TIMP generation (6-MP conversion by HGPRT): 100 μM 6-MP as reaction substrate, increased concentration of hypoxanthine; for affinity to HGPRT (Km): compared with that of 6-MP and HGPRT
Sequence of HGPRT (P00492 whole entry): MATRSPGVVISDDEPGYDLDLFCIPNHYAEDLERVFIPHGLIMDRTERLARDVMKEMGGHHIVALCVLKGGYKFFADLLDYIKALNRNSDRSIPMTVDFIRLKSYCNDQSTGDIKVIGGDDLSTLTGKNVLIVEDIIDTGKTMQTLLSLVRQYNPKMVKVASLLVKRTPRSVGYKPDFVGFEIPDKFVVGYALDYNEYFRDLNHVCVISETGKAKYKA
Procedure: Chemotherapeutic drug 6-MP is an analog of hypoxanthine, and both 6-MP and hypoxanthine are substrates of HGPRT. The present invention established an in vitro enzymatic reaction to determine the Km value of 6-MP and hypoxanthine reacting with HGPRT, respectively, which reflects the affinity of HGPRT to hypoxanthine and 6-MP. The preferred embodiment is as follows:
The specific reaction system is as follows:
Hypoxanthine and 6-MP were diluted in a concentration gradient, reacted at 37° C. for 1 hour, and 80% methanol was added to terminate the reaction. The contents of IMP and TIMP were detected by LC-MS. The reaction curves were plotted and the Km values of hypoxanthine and 6-MP were calculated by Graphpad 5.0 software.

Reh-PRPS1-A190T cells [8] = experiment: Intracellular concentration of hypoxanthine in cells treated with Lometrexol (LC-MS); assay type: cell-based, human; conditions: Reh-PRPS1-A190T treated with Lometrexol vs control
Procedure: (§6) (iii) Cell collection: cells were pipetted out from the well and centrifuged at 1500 rpm to remove the supernatant. The cells were washed with PBS once, and centrifuged again (500 g). Removed the supernatant.
(§7) (iv) Cell lysis: the cells were lysed using 200 μl 80% methanol per 3×10^6 cells.
(§8) (v) The lysed cells were centrifuged by 14,000 g at 4° C. for 10 minutes, and then the supernatant was transferred to a 1.5 ml EP tube.
(§9) (vi) The contents of hypoxanthine, AICAR and Inosine were detected by LC-MS technology (ABI 5500 Qtrap coupled with Waters Acquity UPLC), and standard curves for absolute quantification were made using ^13C5, ^15N4-hypoxanthine (Cambridge isotope laboratories, cat #489522), AICAR (sigma, cat #A9978) and Inosine (Sigma, cat #I4125), respectively.
(§10) (vi) Determining the intracellular concentration of hypoxanthine: the same as Embodiment 14.

Reh-PRPS1-S103T cells [9] = experiment: as above; assay type: cell-based, human; conditions: Reh-PRPS1-S103T treated with Lometrexol vs control
Procedure: as §6, §7, §8, §9, §10

Reh-PRPS1-A190T cells [10] = experiment: Concentration of 6-MP metabolites in cells treated with Lometrexol (LC-MS); assay type: cell-based, human; conditions: Reh-PRPS1-A190T treated with Lometrexol vs control
Excerpt: (§11) (v) Determining the concentration of 6-MP metabolites: the same as Embodiment 13.

Reh-PRPS1-S103T cells [11] = experiment: as above; assay type: cell-based, human; conditions: Reh-PRPS1-S103T treated with Lometrexol vs control
Excerpt: as §11

inhibition of GDP/ADP on PRPS1 protein activity [4]	inhibition of GDP/ADP on PRPS1 protein activity [5]	Compound	apoptotic ratio of cells [1]	IC50 values of drug [3]	concentration of PRPP product after adding the nucleotide [6]	concentration of PRPP after adding the nucleotide [7]	further results
		Sc1ncnc2nc[nH]c12 [6-MP, 6-mercaptopurine]	significantly down-regulated	significantly increased			contents of 6-MP metabolites TIMP, TGMP and r-MP, r-TG and r-MMP in cells [2]: significantly lower
		Nc1nc2nc[nH]c2c(=S)[nH]1 [6-TG, 6-thioguanine]	significantly down-regulated	significantly increased			
significantly lower	no significant difference	Nc1ncnc2c1ncn2[C@@H]1O[C@H](COP(=O)(O)OP(=O)(O)O)[C@@H](O)[C@H]1O [ADP]			not affected	decreased	
significantly lower	no significant difference	Nc1nc2c(ncn2[C@@H]2O[C@H](COP(=O)(O)OP(=O)(O)O)[C@@H](O)[C@H]2O)c(=O)[nH]1 [GDP]			not affected	decreased	
		O=c1[nH]cnc2nc[nH]c12 [hypoxanthine]					TIMP generation (6-MP conversion by HGPRT) (HGPRT): significantly inhibited; TIMP generation (6-MP conversion by HGPRT) (HGPRT; listed as HX): can suppress; affinity to HGPRT (Km) (HGPRT): significantly higher; affinity to HGPRT (Km) (HGPRT; listed as HX): preferred to 6-MP
		Lometrexol					concentration of hypoxanthine (Reh-PRPS1-A190T cells [8]): significantly decreased; concentration of hypoxanthine (Reh-PRPS1-S103T cells [9]): significantly decreased; intracellular levels of 6-MP metabolites TIMP and TGMP (Reh-PRPS1-A190T cells [10]): significantly increased; intracellular levels of 6-MP metabolites TIMP and TGMP (Reh-PRPS1-S103T cells [11]): significantly increased

— patent US11021753B2, “Mutant genes related to drug resistance and relapse of acute lymphoblastic leukaemia and a use thereof” (SHANGHAI CHILDREN'S MEDICAL CENTER, SHANGHAI JIAO TONG …, priority 2015, dated 2021)
